# Test results as given in US9642869B2, “Boronic acid derivatives and therapeutic uses thereof” (Rempex Pharmaceuticals, Inc., priority 2013, dated 2017).
# What was measured:
# [1] = test system: SHV-5 ec308; format: cell-based; conditions: minimum BLI concentration inhibiting growth with tigemonam at 4 μg/mL
# [2] = test system: ECL1002; test: Aztreonam potentiation (MPC@4); format: cell-based; conditions: minimum BLI concentration inhibiting growth with 4 μg/mL aztreonam
# [3] = test system: SHV-5 ec308; test: Aztreonam potentiation (MPC@4); format: cell-based; conditions: minimum BLI concentration inhibiting growth with 4 μg/mL aztreonam
# [4] = test system: CTX-M-14 KP1005; format: cell-based
# [5] = test system: ECL1002; format: cell-based; conditions: minimum BLI concentration inhibiting growth with tigemonam at 4 μg/mL
# [6] = test system: CTX-M-15 KP1009; format: cell-based
# [7] = molecular target: SHV-12 (Klebsiella pneumoniae, UniProt P0AD64, E235K/G234S/L31Q); test: Inhibition of nitrocefin cleavage by purified enzyme (Ki); format: biochemical; conditions: nitrocefin reporter substrate, 10 min preincubation; read-out: Ki (SHV-12, NCF)
# SHV-12, sequence (P0AD64 22-286 L31Q/G234S/E235K): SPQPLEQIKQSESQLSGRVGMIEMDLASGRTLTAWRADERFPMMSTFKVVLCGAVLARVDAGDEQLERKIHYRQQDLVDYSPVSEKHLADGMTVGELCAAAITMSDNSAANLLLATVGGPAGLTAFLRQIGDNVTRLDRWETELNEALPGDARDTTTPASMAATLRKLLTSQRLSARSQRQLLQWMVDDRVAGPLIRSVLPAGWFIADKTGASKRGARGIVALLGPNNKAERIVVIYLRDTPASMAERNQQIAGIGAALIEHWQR
# Protocol: Purified enzymes were mixed with various concentrations of inhibitors in reaction buffer and incubated for 10 min at room temperature. Nitrocefin was added and substrate cleavage profiles were recorded at 490 nm every 10 sec for 10 min.
# [8] = test system: KPC-2 KP1004; test: Aztreonam potentiation (MPC@4); format: cell-based; conditions: minimum BLI concentration inhibiting growth with 4 μg/mL aztreonam
# [9] = test system: OXA-48 KP1086; test: Biapenem potentiation (MPC@1); format: cell-based; conditions: minimum BLI concentration inhibiting growth with 1 μg/mL biapenem
# Protocol: (§1) Biapenem was present in the test medium at 1 μg/mL. […] Table 3 summarizes the BLI potency of biapenem potentiation (MPC@1) for two strains overexpressing class A (KPC) and class D (OXA-48) carbapenemases. Biapenem MIC for each strain is also shown.
# [10] = test system: KP1004 KPC-2; test: Biapenem potentiation (MPC@1); format: cell-based; conditions: minimum BLI concentration inhibiting growth with 1 μg/mL biapenem
# Protocol: as §1
# [11] = Serum stability of prodrugs (hydrolysis by rat serum); format: in vitro ADME; conditions: 37° C.
# Protocol: (§2) Prodrug strategy is one of the ways to achieve or increase oral bioavailability of therapeutic drugs. Compound 13 was used as template a for various ester prodrugs. After a prodrug molecule is absorbed into systemic circulation, the prodrug molecule can be hydrolyzed in the blood to release the active form. The hydrolysis of several prodrugs by rat and human serum were evaluated.
# (§3) For all stability experiments the test compounds are treated with rat or human serum in Eppendorf tubes. One example of the testing procedures includes: 992 μl of serum was prewarmed at 37° C. for 2 minutes and then 8 μl of a compound (at 5 mg/ml, 125×) was added to get a final concentration of 40 μg/ml and immediately mixed. Alternatively, serum stability can be tested at 1 mg/ml. […] After vortexing for 30 seconds, the tube was centrifuged in a microcentrifuge for 10 minutes at 15K rpm. Next, 100 μl of the supernatant was combined with 600 μl of water and injected on LC-MS using 0.1% formic acid in water for mobile phase A and 0.1% formic acid in methanol for mobile phase B on an ACE 5 C18 2.1×100 mm column with a 10 μL injection. The flow rate and gradient are adjusted as needed to give the desired resolution and run time. The pH of the mobile phase is adjusted if needed to improve the chromatography.
# (§4) The time course of both the disappearance of a prodrug and the appearance of the active form of that prodrug is presented in Table 9a and Table 9b.
# [12] = Serum stability of prodrugs (hydrolysis by human serum); format: in vitro ADME; conditions: 37° C.
# Protocol: as §2, §3, §4
SMILES,Measured Initial Conc. in Serum (prodrug) [11],Conc. at t = 2 hr (prodrug) [11],Conc. at t = 4 hr (prodrug) [11],Measured Initial Conc. in Serum (prodrug) [12],Conc. at t = 2 hr (prodrug) [12],Conc. at t = 4 hr (prodrug) [12],TIG MPC4 SHV-5 ec308 [1],AZT MPC4 ECL1002 [2],AZT MPC4 SHV-5 ec308 [3],TIG MPC4 CTX-M-14 KP1005 [4],TIG MPC4 ECL1002 [5],TIG MPC4 CTX-M-15 KP1009 [6],Ki [7],AZT MPC4 KPC-2 KP1004 [8],BPM MPC1 OXA-48 KP1086 [9],BPM MPC1 KP1004 KPC-2 [10]
"O=C(N[C@H]1Cc2cccc(C(=O)O)c2OB1O)c1cncnc1 [Compound 18, (R)-2-hydroxy-3-(pyrimidine-5-carboxamido)-3,4-dihydro-2H-benzo[e][1,2]oxaborinine-8-carboxylic acid]",–,–,–,–,–,–,Y (MIC of 1 μg/mL to 10 μg/mL),Y (MIC of 1 μg/mL to 10 μg/mL),Y (MIC of 1 μg/mL to 10 μg/mL),Y (key: X: MIC of less than 1 μg/mL; Y: MIC of 1 μg/mL to 10 μg/mL; Z: MIC of greater than 10 μg/mL),Y (MIC of 1 μg/mL to 10 μg/mL),Y (key: X: MIC of less than 1 μg/mL; Y: MIC of 1 μg/mL to 10 μg/mL; Z: MIC of greater than 10 μg/mL),< 1 nM,Y (MIC of 1 μg/mL to 10 μg/mL),Y (MIC of 1 μg/mL to 10 μg/mL),Y (MIC of 1 μg/mL to 10 μg/mL)
"CCC(CC)C(=O)OCOC(=O)c1cccc2c1OB(O)[C@@H](NC(=O)CSC)C2 [Compound 26, (R)-(2-ethylbutanoyloxy)methyl 2-hydroxy-3-(2-(methylthio)acetamido)-3,4-dihydro-2H-benzo[e][1,2]oxaborinine-8-carboxylate]",1380 µg/mL,1150 µg/mL,1080 µg/mL,1520 µg/mL,920 µg/mL,790 µg/mL,–,–,–,–,–,–,–,–,–,–

# Now from value to molecule, other results behind:
Measured Initial Conc. in Serum (prodrug) [11],Conc. at t = 2 hr (prodrug) [11],Conc. at t = 4 hr (prodrug) [11],Measured Initial Conc. in Serum (prodrug) [12],Conc. at t = 2 hr (prodrug) [12],Conc. at t = 4 hr (prodrug) [12],SMILES,TIG MPC4 SHV-5 ec308 [1],AZT MPC4 ECL1002 [2],AZT MPC4 SHV-5 ec308 [3],TIG MPC4 CTX-M-14 KP1005 [4],TIG MPC4 ECL1002 [5],TIG MPC4 CTX-M-15 KP1009 [6],Ki [7],AZT MPC4 KPC-2 KP1004 [8],BPM MPC1 OXA-48 KP1086 [9],BPM MPC1 KP1004 KPC-2 [10]
1780 µg/mL,1440 µg/mL,1100 µg/mL,1860 µg/mL,1350 µg/mL,1000 µg/mL,"CSCC(=O)N[C@H]1Cc2cccc(C(=O)OCOC(=O)C(C)(C)C)c2OB1O [Compound 23, (R)-pivaloyloxymethyl 2-hydroxy-3-(2-(methylthio)acetamido)-3,4-dihydro-2H-benzo[e][1,2]oxaborinine-8-carboxylate]",–,–,–,–,–,–,–,–,–,–
1660 µg/mL,910 µg/mL,330 µg/mL,1790 µg/mL,550 µg/mL,240 µg/mL,"CSCC(=O)N[C@H]1Cc2cccc(C(=O)OCOC(=O)OC(C)C)c2OB1O [Compound 24, (R)-(isopropoxycarbonyloxy)methyl 2-hydroxy-3-(2-(methylthio)acetamido)-3,4-dihydro-2H-benzo[e][1,2]oxaborinine-8-carboxylate]",–,–,–,–,–,–,–,–,–,–
31.2 µg/mL,1.94 µg/mL,NDT,27.3 µg/mL,NDT,NDT,"CCCC(=O)OCOC(=O)c1cccc2c1OB(O)[C@@H](NC(=O)CSC)C2 [Compound 25, (R)-butyryloxymethyl 2-hydroxy-3-(2-(methylthio)acetamido)-3,4-dihydro-2H-benzo[e][1,2]oxaborinine-8-carboxylate]",–,–,–,–,–,–,–,–,–,–
